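Results reflect a 48-hour exposure of cells in 96-well plates to compound at five concentrations. GI50 = concentration required for 50% inhibition of growth.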 Calls of active or inactive are those of the source. Cut-off read from the data, not from the text of the source: active = GI50 up to about 1.1 µM and inactive = higher.
Key:
Experiment in all cases: NCI-60 cell line screen, 48 h
SN12C = system: SN12C
KM12 = system: KM12
EKVX = system: EKVX
COLO 205 = system: COLO 205
NCI-H226 = system: NCI-H226
MDA-MB-231 = system: MDA-MB-231
PC-3 = system: PC-3
LOX IMVI = system: LOX IMVI
M14 = system: M14
SNB-75 = system: SNB-75
NCI-H522 = system: NCI-H522
SK-OV-3 = system: SK-OV-3
SNB-19 = system: SNB-19
SF-268 = system: SF-268
ACHN = system: ACHN
TK-10 = system: TK-10
BT-549 = system: BT-549
HT-29 = system: HT-29
SK-MEL-5 = system: SK-MEL-5
NCI-H23 = system: NCI-H23

Row | Structure (SMILES) | GI50 (SN12C) | GI50 (KM12) | GI50 (EKVX) | GI50 (COLO 205) | GI50 (NCI-H226) | GI50 (MDA-MB-231) | GI50 (PC-3) | GI50 (LOX IMVI) | GI50 (M14) | GI50 (SNB-75) | GI50 (NCI-H522) | GI50 (SK-OV-3) | GI50 (SNB-19) | GI50 (SF-268) | GI50 (ACHN) | GI50 (TK-10) | GI50 (BT-549) | GI50 (HT-29) | GI50 (SK-MEL-5) | GI50 (NCI-H23)
1 | N#CCc1nc(-c2cc3ccccc3oc2=O)cs1 | > 100 µM (inactive) | 26.7 µM (inactive) | 41.4 µM (inactive) | 67.3 µM (inactive) | 36.8 µM (inactive) | 79.3 µM (inactive) | 29.8 µM (inactive) | 56.9 µM (inactive) | 35.6 µM (inactive) | 19.1 µM (inactive) | 15.9 µM (inactive) | > 100 µM (inactive) | > 100 µM (inactive) | > 100 µM (inactive) | 42.5 µM (inactive) | > 100 µM (inactive) | 17.9 µM (inactive) | 54 µM (inactive) | 26.4 µM (inactive) | 
2 | C/C(=N\Nc1nc2cc(C)ccc2s1)c1ccccn1 | 0.401 µM (active) | 0.794 µM (active) | 0.143 µM (active) | 0.0518 µM (active) | 0.348 µM (active) | 0.233 µM (active) | 0.593 µM (active) | 0.481 µM (active) | 0.417 µM (active) | 2.23 µM (inactive) | 0.148 µM (active) | 0.49 µM (active) | 1.38 µM (inactive) | 0.505 µM (active) | 0.25 µM (active) | 2.22 µM (inactive) | 6.22 µM (inactive) | 0.121 µM (active) | 0.404 µM (active) | 0.39 µM (active)
3 | Cc1ccc(/N=N/c2c(C)nn(C(=O)CC(=O)Nc3ccccc3)c2C)cc1C | > 100 µM (inactive) | > 100 µM (inactive) | 26.2 µM (inactive) | > 100 µM (inactive) | > 100 µM (inactive) | > 100 µM (inactive) | > 100 µM (inactive) | > 100 µM (inactive) | > 100 µM (inactive) | 59.7 µM (inactive) | > 100 µM (inactive) | > 100 µM (inactive) |  | > 100 µM (inactive) | > 100 µM (inactive) | > 100 µM (inactive) | > 100 µM (inactive) | > 100 µM (inactive) | > 100 µM (inactive) | > 100 µM (inactive)
4 | COC(=O)CCCC(=O)/C(=N\Nc1ccc(Cl)cc1)Nc1c(Cl)cccc1Cl | > 100 µM (inactive) | 32 µM (inactive) | 51.8 µM (inactive) | 22.7 µM (inactive) | 45.2 µM (inactive) | > 82.8 µM (inactive) | 24 µM (inactive) | 64.1 µM (inactive) | > 92.5 µM (inactive) | 27.5 µM (inactive) | 28.4 µM (inactive) | > 100 µM (inactive) | 35.7 µM (inactive) | > 89.7 µM (inactive) | > 87.9 µM (inactive) | > 74.1 µM (inactive) | > 100 µM (inactive) | 56.6 µM (inactive) | 32.8 µM (inactive) | 48.2 µM (inactive)
5 | COc1cc2c(cc1OC)C(N)CC2=O (stereo unspecified) | > 100 µM (inactive) | > 100 µM (inactive) | > 100 µM (inactive) | > 100 µM (inactive) | 9.06 µM (inactive) | > 100 µM (inactive) | > 100 µM (inactive) | > 100 µM (inactive) | > 100 µM (inactive) | > 100 µM (inactive) | > 100 µM (inactive) | > 100 µM (inactive) | > 100 µM (inactive) | > 100 µM (inactive) | > 100 µM (inactive) | > 100 µM (inactive) | > 100 µM (inactive) | > 100 µM (inactive) | > 100 µM (inactive) | > 100 µM (inactive)
6 | COc1ccc2c3c(ccc2c1)NC(C(=O)O)CC3 (stereo unspecified) | 63.1 µM (inactive) | 67.3 µM (inactive) | 67.8 µM (inactive) | 39.5 µM (inactive) | > 100 µM (inactive) | 85.7 µM (inactive) | 74.6 µM (inactive) | 46.5 µM (inactive) | 45.1 µM (inactive) | 57.7 µM (inactive) | 29.2 µM (inactive) | > 100 µM (inactive) | 56.8 µM (inactive) | 39.1 µM (inactive) | 73.8 µM (inactive) | 52.1 µM (inactive) | > 100 µM (inactive) | 45.2 µM (inactive) | 27.4 µM (inactive) | > 100 µM (inactive)
7 | CC1=C(C(=O)OC(C)C)C(c2cccc([N+](=O)[O-])c2)C(C(=O)OC(CO[N+](=O)[O-])CO[N+](=O)[O-])=C(C)N1 (stereo unspecified) | 3.97 µM (inactive) | 3.3 µM (inactive) | 4.37 µM (inactive) | 2.93 µM (inactive) | 6.55 µM (inactive) | 3.59 µM (inactive) | 2.05 µM (inactive) | 3.08 µM (inactive) | 3.56 µM (inactive) | 2.66 µM (inactive) | 1.85 µM (inactive) | 7.01 µM (inactive) | 2.99 µM (inactive) | 2.26 µM (inactive) | 3.44 µM (inactive) | 8.07 µM (inactive) | 2.67 µM (inactive) | 3.21 µM (inactive) | 1.96 µM (inactive) | 5.37 µM (inactive)
8 | COC(=O)[C@@H]1C[C@]2(CC=C(C)C)c3ccccc3N(S(=O)(=O)c3ccccc3)[C@@H]2N1C(=O)OC | 40.6 µM (inactive) | 19.7 µM (inactive) | 3.83 µM (inactive) | 28.2 µM (inactive) | 19 µM (inactive) | 20.4 µM (inactive) | 17 µM (inactive) | 21.5 µM (inactive) |  | 13.1 µM (inactive) | 10.3 µM (inactive) | 10.6 µM (inactive) | 34.1 µM (inactive) | 18 µM (inactive) | 25.5 µM (inactive) | 32 µM (inactive) | 32.2 µM (inactive) | 23.5 µM (inactive) | 11.6 µM (inactive) | > 100 µM (inactive)
9 | CC1=NOC2(C1)/C(=N/O)CCC/C2=N\O (stereo unspecified) | > 100 µM (inactive) | > 100 µM (inactive) | > 100 µM (inactive) | > 100 µM (inactive) | > 100 µM (inactive) | > 100 µM (inactive) | > 100 µM (inactive) | > 100 µM (inactive) | > 100 µM (inactive) | > 100 µM (inactive) | > 100 µM (inactive) | > 100 µM (inactive) | > 100 µM (inactive) | > 100 µM (inactive) | > 100 µM (inactive) | > 100 µM (inactive) | > 100 µM (inactive) | > 100 µM (inactive) | > 100 µM (inactive) | > 100 µM (inactive)
10 | Cc1nc(N)nc(N)c1N1CCN(Cc2ccccc2)CC1 | 56.1 µM (inactive) | 27 µM (inactive) | > 53.6 µM (inactive) | 31.8 µM (inactive) | 12.1 µM (inactive) | > 86.3 µM (inactive) | 7.48 µM (inactive) | 8.15 µM (inactive) | 13.3 µM (inactive) | > 52.5 µM (inactive) | 24.8 µM (inactive) | > 55.1 µM (inactive) | 55.5 µM (inactive) | 16.1 µM (inactive) | 12.6 µM (inactive) | 66.1 µM (inactive) | > 93.3 µM (inactive) | 11.8 µM (inactive) | > 37.8 µM (inactive) | 17.1 µM (inactive)
11 | CSc1[nH]nc(N)c1C(=O)Nc1ccccc1 | > 100 µM (inactive) | > 100 µM (inactive) | > 100 µM (inactive) | > 100 µM (inactive) | > 100 µM (inactive) | > 100 µM (inactive) | > 100 µM (inactive) | > 100 µM (inactive) | > 100 µM (inactive) | > 100 µM (inactive) | 52.4 µM (inactive) | > 100 µM (inactive) | > 100 µM (inactive) | > 100 µM (inactive) |  | > 100 µM (inactive) | > 100 µM (inactive) | > 100 µM (inactive) | > 100 µM (inactive) | > 100 µM (inactive)
12 | Cc1n[nH]c(=O)c2c3c([nH]c12)-c1ccccc1C3 | > 100 µM (inactive) | > 100 µM (inactive) | > 100 µM (inactive) | > 100 µM (inactive) | 51.1 µM (inactive) | 66.4 µM (inactive) | > 100 µM (inactive) | > 100 µM (inactive) | > 100 µM (inactive) | 18.7 µM (inactive) | > 100 µM (inactive) | > 100 µM (inactive) | > 100 µM (inactive) | > 100 µM (inactive) | > 100 µM (inactive) | 63.4 µM (inactive) | > 100 µM (inactive) | > 100 µM (inactive) | > 100 µM (inactive) | > 100 µM (inactive)
13 | COc1ccc(/C=C/C(=O)N[C@@H]2C(=O)N3[C@@H]2SC(C)(C)[C@@H]3C(=O)O)cc1 | > 100 µM (inactive) | > 100 µM (inactive) | > 100 µM (inactive) | > 100 µM (inactive) | > 100 µM (inactive) | > 100 µM (inactive) | > 100 µM (inactive) | > 100 µM (inactive) | > 100 µM (inactive) | > 100 µM (inactive) | 69.2 µM (inactive) | > 100 µM (inactive) | > 100 µM (inactive) | > 100 µM (inactive) | > 100 µM (inactive) | > 100 µM (inactive) | > 100 µM (inactive) | > 100 µM (inactive) | > 100 µM (inactive) | > 100 µM (inactive)
14 | OC1C2CCCCN2C[C@@H](O)[C@H]1O (stereo partly specified) | > 100 µM (inactive) | > 100 µM (inactive) | > 100 µM (inactive) | > 100 µM (inactive) | > 100 µM (inactive) | > 100 µM (inactive) | > 100 µM (inactive) | > 100 µM (inactive) | > 100 µM (inactive) | > 100 µM (inactive) | 76.6 µM (inactive) | > 100 µM (inactive) | > 100 µM (inactive) | > 100 µM (inactive) | > 100 µM (inactive) | > 100 µM (inactive) | > 100 µM (inactive) | > 100 µM (inactive) | > 100 µM (inactive) | > 100 µM (inactive)
